Drawing on patent publication US10227344B2, “CK2 inhibitors, compositions and methods thereof” (Polaris Pharmaceuticals, Inc., priority 2016, dated 2019), this text covers Ki and melting point for 21 compounds.

Where a name gives a salt, the structure may show the parent alone.

A word on the Ki: it is the dissociation constant of the complex between target and ligand, obtained from inhibition or displacement. Lower therefore signals higher affinity. For orientation: melting point means the temperature, or range, at which the solid turns liquid.

purified CK2α enzyme, sequence (P68400 whole entry): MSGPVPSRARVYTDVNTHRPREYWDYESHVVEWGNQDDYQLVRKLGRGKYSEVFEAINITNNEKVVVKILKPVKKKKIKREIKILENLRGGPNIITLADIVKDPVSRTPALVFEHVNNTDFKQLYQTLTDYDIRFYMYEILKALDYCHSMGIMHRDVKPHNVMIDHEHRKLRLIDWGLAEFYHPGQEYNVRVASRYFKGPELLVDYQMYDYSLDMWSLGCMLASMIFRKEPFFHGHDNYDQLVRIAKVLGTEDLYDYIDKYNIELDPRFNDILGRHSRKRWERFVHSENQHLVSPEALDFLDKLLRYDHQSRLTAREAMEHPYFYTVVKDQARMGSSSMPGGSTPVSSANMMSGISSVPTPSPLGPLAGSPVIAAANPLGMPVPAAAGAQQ

The target of one series is purified CK2α enzyme (Homo sapiens, UniProt P68400). Kind of series: CK2 Protein Kinase Inhibition Assay (coupled PK/LDH assay). The settings on record: CK2 enzyme 25 nM, 100 μM ATP, 37° C., Morrison equation. It counts as biochemical. The procedure:
A coupled PK (pyruvate kinase)/LDH (lactate dehydrogenase) assay was used to measure compounds' ability to inhibit purified CK2α enzyme.
The ADP product of kinase CK2a is the cofactor for PK. Phospho(enol)pyruvate (PEP) PEP is metabolized by pyruvate kinase to yield pyruvate, which is the substrate for LDH.
Serially diluted compounds were pre-incubated for 10 min at 37° C. with and 1.5 mM […] peptide substrate, 6 U/ml PK and 10 U/ml LDH (purchased from Sigma-Aldrich), 100 μM ATP, 1.2 mM NADH, 4 mM PEP in the reaction buffer (50 mM Tris (pH 8.25), 0.1 M NaCl, 10 mM magnesium acetate). The reaction was initiated by the addition of an equal volume of purified CK2 enzyme (final concentration 25 nM) diluted in the reaction buffer. Absorbance at 340 nm was measured overtime (for 30 min) at 37° C.; as NADH was converted to NAD+ the absorbance decreases. Absorbance decrease rate (per min) was plotted against the compound concentration and Ki is determined by GraphPad Prism using Morrison equation. All data points were performed in triplicate and each compound was tested in at least two separate experiments.
To this end, K, values of less than 2.5 nM are labelled as “+++”, from 2.5 nM to 10 nM are labelled as “++”, and greater than 10 nM are labelled as “+”.
As to `CS(=O)(=O)Cc1cc(Nc2cc(NC3CC3)n3ncc(C#N)c3n2)ccc1N1CC[C@H](N)C1` [Example 29, (S)-5-((4-(3-aminopyrrolidin-1-yl)-3-((methylsulfonyl)methyl)phenyl)amino)-7-(cyclopropylamino)pyrazolo[1,5-a]pyrimidine-3-carbonitrile mono trifluoroacetic acid salt], the Ki is less than 2.5 nM.
`CN(C)c1ccc(Nc2cc(NC3CC3)n3ncc(C#N)c3n2)cc1CS(C)(=O)=O` [Example 34, 7-(Cyclopropylamino)-5-((4-(dimethylamino)-3-((methylsulfonyl)methyl)phenyl)amino)pyrazolo[1,5-a]pyrimidine-3-carbonitrile] came in with a Ki of less than 2.5 nM.
The same measure, in the same setting: then `CS(=O)(=O)Cc1cc(Nc2cc(NC3CC3)n3ncc(C#N)c3n2)ccc1C1(CN)CC1` [Example 39, 5-((4-(1-(Aminomethyl)cyclopropyl)-3-((methylsulfonyl)methyl)phenyl)amino)-7-(cyclopropylamino)pyrazolo[1,5-a]pyrimidine-3-carbonitrile mono trifluoroacetic acid salt], with less than 2.5 nM.
Still for that read-out and setting: then `CS(=O)(=O)Cc1cc(Nc2cc(NC3CC3)n3ncc(C#N)c3n2)ccc1N1CC(N)C1` [Example 41, 5-((4-(3-Aminoazetidin-1-yl)-3-((methylsulfonyl)methyl)phenyl)amino)-7-(cyclopropylamino)pyrazolo[1,5-a]pyrimidine-3-carbonitrile], with 2.5 to 10 nM.
For the compound `CS(=O)(=O)Cc1cc(Nc2cc(NC3CC3)n3ncc(C#N)c3n2)ccc1N1CC(CN)C1` [Example 43, 5-((4-(3-(Aminomethyl)azetidin-1-yl)-3-((methylsulfonyl)methyl)phenyl)amino)-7-(cyclopropylamino)pyrazolo[1,5-a]pyrimidine-3-carbonitrile], the Ki is less than 2.5 nM.
Still for that read-out and setting: then `CN(c1ccc(Nc2cc(NC3CC3)n3ncc(C#N)c3n2)cc1CS(C)(=O)=O)C1CNC1` [Example 45, 5-((4-(Azetidin-3-yl(methyl)amino)-3-((methylsulfonyl)methyl)phenyl)amino)-7-(cyclopropylamino)pyrazolo[1,5-a]pyrimidine-3-carbonitrile], with 2.5 to 10 nM.
Still for that read-out and setting: then `CN(CCN)c1ccc(Nc2cc(NC3CC3)c3ncc(C#N)n3n2)cc1CS(C)(=O)=O` [Example 48, 6-((4-((2-aminoethyl)(methyl)amino)-3-((methylsulfonyl)methyl)phenyl)amino)-8-(cyclopropylamino)imidazo[1,2-b]pyridazine-3-carbonitrile mono trifluoroacetic acid salt], with 2.5 to 10 nM; and `CN(CCN)c1ccc(Nc2nc(NC3CC3)c3ncc(C#N)n3n2)cc1CS(C)(=O)=O` [Example 50, 2-((4-((2-aminoethyl)(methyl)amino)-3-((methylsulfonyl)methyl)phenyl)amino)-4-(cyclopropylamino)imidazo[2,1-f][1,2,4]triazine-7-carbonitrile mono trifluoroacetic acid salt], with 2.5 to 10 nM.
For `CN(CCN)c1ccc(Nc2nc(NC3CC3)n3ncc(C#N)c3n2)cc1CS(C)(=O)=O` [Example 52, 2-((4-((2-aminoethyl)(methyl)amino)-3-((methylsulfonyl)methyl)phenyl)amino)-4-(cyclopropylamino)pyrazolo[1,5-a][1,3,5]triazine-8-carbonitrile mono trifluoroacetic acid salt], the Ki lay within 2.5 to 10 nM.
With `CN(CC1(N)CC1)c1ccc(Nc2cc(NC3CC3)n3ncc(C#N)c3n2)cc1CS(C)(=O)=O` [Example 66, 5-((4-(((1-aminocyclopropyl)methyl)(methyl)amino)-3-((methylsulfonyl)methyl)phenyl)amino)-7-(cyclopropylamino)pyrazolo[1,5-a]pyrimidine-3-carbonitrile mono trifluoroacetic acid salt], the Ki was less than 2.5 nM.

Test system in a further series: not given
Assay: not given
Details: not given
`CN(CCN)c1ccc(Nc2cc(NC3CC3)c3ncc(C#N)n3n2)cc1CS(C)(=O)=O` (as salt: trifluoroacetic acid salt) [Example 48, 6-((4-((2-aminoethyl)(methyl)amino)-3-((methylsulfonyl)methyl)phenyl)amino)-8-(cyclopropylamino)imidazo[1,2-b]pyridazine-3-carbonitrile mono trifluoroacetic acid salt] gave a melting point of 121 to 124 °C.
`CN(CCN)c1ccc(Nc2nc(NC3CC3)c3ncc(C#N)n3n2)cc1CS(C)(=O)=O` (as salt: trifluoroacetic acid salt) [Example 50, 2-((4-((2-aminoethyl)(methyl)amino)-3-((methylsulfonyl)methyl)phenyl)amino)-4-(cyclopropylamino)imidazo[2,1-f][1,2,4]triazine-7-carbonitrile mono trifluoroacetic acid salt] gave a melting point of 113 to 117 °C.
Compound `CN(CCN)c1ccc(Nc2nc(NC3CC3)n3ncc(C#N)c3n2)cc1CS(C)(=O)=O` (as salt: trifluoroacetic acid salt) [Example 52, 2-((4-((2-aminoethyl)(methyl)amino)-3-((methylsulfonyl)methyl)phenyl)amino)-4-(cyclopropylamino)pyrazolo[1,5-a][1,3,5]triazine-8-carbonitrile mono trifluoroacetic acid salt] gave a melting point of 55 to 59 °C.
With `CN(CC1(N)CC1)c1ccc(Nc2cc(NC3CC3)n3ncc(C#N)c3n2)cc1CS(C)(=O)=O` (as salt: trifluoroacetic acid salt) [Example 66, 5-((4-(((1-aminocyclopropyl)methyl)(methyl)amino)-3-((methylsulfonyl)methyl)phenyl)amino)-7-(cyclopropylamino)pyrazolo[1,5-a]pyrimidine-3-carbonitrile mono trifluoroacetic acid salt], the melting point was in the range of 185 to 189 °C.
The same measure, in the same setting: then `CN(CCN)c1ccc(Nc2cc(NC3CC3)c3ncc(C#N)n3n2)cc1C[S+](C)[O-]` (racemic) (as salt: trifluoroacetic acid salt) [Example 47, (±)-6-((4-((2-Aminoethyl)(methyl)amino)-3-((methylsulfinyl)methyl)phenyl)amino)-8-(cyclopropylamino)imidazo[1,2-b]pyridazine-3-carbonitrile mono trifluoroacetic acid salt], with 91 to 94 °C.
`CN(CCN)c1ccc(Nc2nc(NC3CC3)c3ncc(C#N)n3n2)cc1C[S+](C)[O-]` (racemic) (as salt: trifluoroacetic acid salt) [Example 49, (±)-2-((4-((2-aminoethyl)(methyl)amino)-3-((methylsulfinyl)methyl)phenyl)amino)-4-(cyclopropylamino)imidazo[2,1-f][1,2,4]triazine-7-carbonitrile mono trifluoroacetic acid salt] showed a melting point of 93 to 97 °C.
Still for that read-out and setting: the value for `CN(CCN)c1ccc(Nc2nc(NC3CC3)n3ncc(C#N)c3n2)cc1C[S+](C)[O-]` (racemic) (as salt: trifluoroacetic acid salt) [Example 51, (±)-2-((4-((2-aminoethyl)(methyl)amino)-3-((methylsulfinyl)methyl)phenyl)amino)-4-(cyclopropylamino)pyrazolo[1,5-a][1,3,5]triazine-8-carbonitrile mono trifluoroacetic acid salt] was 78 to 82 °C; that for `CC(N)c1ccc(Nc2cc(NC3CC3)n3ncc(C#N)c3n2)cc1C[S+](C)[O-]` (racemic) (as salt: trifluoroacetic acid salt) [Example 58, (±)-5-((4-((R,S)-1-Aminoethyl)-3-((methylsulfinyl)methyl)phenyl)amino)-7-(cyclopropylamino)pyrazolo[1,5-a]pyrimidine-3-carbonitrile mono trifluoroacetic acid salt] was 161 to 165 °C; that for `C[S+]([O-])Cc1cc(Nc2cc(NC3CC3)n3ncc(C#N)c3n2)ccc1C1(N)CC1` (racemic) (as salt: trifluoroacetic acid salt) [Example 59, (±)-5-((4-(1-Aminocyclopropyl)-3-((methylsulfinyl)methyl)phenyl)amino)-7-(cyclopropylamino)pyrazolo[1,5-a]pyrimidine-3-carbonitrile mono trifluoroacetic acid salt] was 185 to 189 °C.
On the same count and under the same terms, the value for `C/C(=C\CN)c1ccc(Nc2cc(NC3CC3)n3ncc(C#N)c3n2)cc1C[S+](C)[O-]` (racemic) (as salt: trifluoroacetic acid salt) [Example 60, (±)-(E)-5-((4-(4-aminobut-2-en-2-yl)-3-((methylsulfinyl)methyl)phenyl)amino)-7-(cyclopropylamino)pyrazolo[1,5-a]pyrimidine-3-carbonitrile mono trifluoroacetic acid salt] was 249 to 253 °C; that for `C[S+]([O-])Cc1cc(Nc2cc(NC3CC3)n3ncc(C#N)c3n2)ccc1C1CCCNC1` (racemic) (as salt: trifluoroacetic acid salt) [Example 61, (±)-7-(Cyclopropylamino)-5-((3-((methylsulfinyl)methyl)-4-((R,S)-piperidin-3-yl)phenyl)amino)pyrazolo[1,5-a]pyrimidine-3-carbonitrile mono trifluoroacetic acid salt] was 55 to 59 °C.
